# Experimental data: patent US12077527B2, “Compositions and methods for inhibiting ACSS2” (THE TRUSTEES OF THE UNIVERSITY OF PENNSYLVANIA, priority 2017, dated 2024)
# Columns and labels:
# ACSS2 = target: T1, ACSS2 (Mus musculus, UniProt Q9QXG4); experiment: Incorporation of alcohol-derived heavy acetyl groups into brain histone acetylation (Example 6); assay type: in vivo; conditions: mice treated with ACSS2 inhibitor
# T1 construct: from tissue; host or cells: brain (hippocampus) of living mice
# T1 sequence (Q9QXG4 whole entry): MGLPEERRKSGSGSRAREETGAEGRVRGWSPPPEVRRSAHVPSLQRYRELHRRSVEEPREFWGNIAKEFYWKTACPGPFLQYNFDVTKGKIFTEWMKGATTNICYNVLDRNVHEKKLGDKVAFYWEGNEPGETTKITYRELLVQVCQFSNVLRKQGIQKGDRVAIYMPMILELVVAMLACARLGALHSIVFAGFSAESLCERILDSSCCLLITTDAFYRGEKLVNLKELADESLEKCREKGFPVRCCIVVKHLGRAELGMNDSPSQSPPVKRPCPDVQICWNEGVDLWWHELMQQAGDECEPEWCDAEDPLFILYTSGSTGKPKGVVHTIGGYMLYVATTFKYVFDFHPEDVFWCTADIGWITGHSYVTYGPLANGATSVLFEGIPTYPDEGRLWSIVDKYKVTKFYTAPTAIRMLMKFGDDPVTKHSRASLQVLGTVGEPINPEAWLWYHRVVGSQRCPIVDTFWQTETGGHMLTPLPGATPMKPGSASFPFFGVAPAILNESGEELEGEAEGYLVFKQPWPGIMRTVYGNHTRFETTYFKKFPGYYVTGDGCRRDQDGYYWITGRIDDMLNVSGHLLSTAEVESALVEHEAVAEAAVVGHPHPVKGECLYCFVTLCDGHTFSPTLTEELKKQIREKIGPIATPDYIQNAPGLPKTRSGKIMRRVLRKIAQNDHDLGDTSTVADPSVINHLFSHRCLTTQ
# Protocol: To investigate the direct role of ACSS2 in alcohol-dependent acetylation in the brain, mice are treated with an ACSS2 inhibitor, ADG-204, ADG-205, ADG-206, or ADG-207. […] In contrast, in control mice, vHPC incorporation of the heavy label is not affected. Thus, acetate derived from hepatic alcohol metabolism is transported to the brain and readily incorporated into histone acetylation.
# [1] = tested on: primary hippocampal neurons; experiment: Western blots of lysates from primary hippocampal neurons treated with ACSS2i; assay type: cell-based, mouse; conditions: day 7 neurons, ACSS2i 24 hours, western blot
# Protocol: Cells were lysed in buffer containing 50 mM Tris pH 8.0, 0.5 mM EDTA, 150 mM NaCl, 1% NP40, 1% SDS, supplemented with protease inhibitor cocktail (Life Technologies, number 78446). For subcellular fractionation experiments, the cells were processed using the subcellular fractionation kit for cultured cells (Thermo Scientific, number 78840) according to the manufacturer's instructions. Protein concentration was determined by BCA protein assay (Life Technologies, number 23227), and equal amounts of protein were used in co-immunoprecipitation experiments or directly loaded onto polyacrylamide gels. The endogenous co-immunoprecipitation experiments were performed using antibody-conjugated protein A Dynabeads (Life Technologies) in buffer containing: 20 mM Tris, pH 8.0, 137 mM NaCl, 1 mM MgCl2, 1 mM CaCl2, 1% NP-40, 10% glycerol, with protease and phosphatase inhibitors, and 12.5 U/mL benzonase (Novagen, 70746). Proteins or co-immunoprecipitation eluates were loaded and separated on 4-12% Bis-Tris polyacrylamide gels (NuPAGE). After transfer to nitrocellulose membrane, 3% BSA in TBS supplemented with 0.1% Tween 20 (TBST) was used to block the membrane at room temperature for 1 hour. Primary antibodies were diluted in TBST, and incubated at 4° C. overnight. Primary antibodies are listed below. The membrane was washed three times with TBST, each for 10 min, followed by incubation with HRP-conjugated secondary antibodies at room temperature for 1 hour, in TBST. The membrane was washed again three times, and imaged with a Fujifilm LAS-4000 imager. Original gel blots are provided as FIGS. 14-16. […]
# [2] = tested on: differentiated CAD neurons; experiment: RNA-seq of differentiated CAD neurons treated with ACSS2i; assay type: cell-based, mouse
# Protocol: (§1) CAD cells (Cath.-a-differentiated) were grown in Dulbecco's modified Eagle's medium (DMEM):Ham's F12 (1:1), supplemented with 2 mM glutamine, 1% penicillin/streptomycin, and 10% fetal bovine serum (FBS). To induce neuronal differentiation, sub-confluent CAD cell cultures (50-60%) were transferred to serum-free medium (DMEM:Ham's F12 (1:1) supplemented with 2 mM glutamine) and maintained in […] culture dishes for 5 days. […] For knockdown experiments, CAD cells were infected with lentiviral hairpin constructs (TRC collection) designed against ACL (#TRCN0000055217) or ACSS2 (#TRCN0000076124, #TRCN0000076125) in medium containing […] polybrene and 10% FBS for 24 hours. Cells then underwent selection in culture medium supplemented with 0.5 mg/mL puromycin for 5 days to obtain a stably infected population. Cell treatment with ACSS2i (1-(2,3-di(thiophen-2-yl)quinoxalin-6-yl)-3-(2-methoxyethyl)urea (DMSO)) was carried out for 24 hours at a final concentration of 20 μM (treatment with DMSO alone served as control).
# To generate libraries for RNA-seq, poly(A)^+ RNA was extracted using the Dynabeads mRNA Direct kit (Ambion) according to the manufacturer's instructions. […] The quantity and quality of the libraries were assessed by BioAnalyzer (Agilent) and qPCR (Kapa Biosystems). The multiplexed libraries were pooled and sequenced on a single lane on the Illumina NextSeq 500 platform (50 bp, single-end reads). […] The aligned reads were mapped to genomic features using cufflinks-2.2.1, (-G parameter to quantify only known features), and iGenomes mml0 UCSC genomic transcript loci. The rRNA, […], and tRNA of the mouse genome were downloaded from the goldenPath UCSC FTP and were masked from the transcript quantification. After quantification, all data processing was done using python pandas library v.0.14.0. […] The statistical significance of the trend and reproducibility were assessed by taking the top 20% of genes by loss of expression in the knockdown and comparing the expression of these genes in inhibitor-treated cells to a random sample of genes outside this set (Mann-Whitney test).
# [3] = tested on: differentiated CAD neurons; experiment: Nuclear acetyl-CoA quantification (PicoProbe assay) in differentiated CAD neurons; assay type: cell-based, mouse; conditions: versus control, n=3
# Protocol: as §1
# To extract and quantify acetyl-CoA from differentiated CAD neurons, 4×10^6 cells were washed and incubated in lysis buffer for 30 min (10 mM Tris pH 8, 1 mM KCl, 1.5 mM MgCl2, 1 mM DTT). […] The PicoProbe assay was performed in 96-well clear-bottom plates, and the resulting fluorescence was quantified using the Synergy HTX Multi-Mode Microplate Reader (BioTek Instruments).
# [4] = tested on: primary hippocampal neurons; experiment: RNA-seq of acetate-treated primary hippocampal neurons with or without ACSS2i; assay type: cell-based, mouse
# Protocol: All RNA-seq data were prepared for analysis as follows: NextSeq sequencing data was demultiplexed using native apps on BaseSpace. Demultiplexed FASTQs were aligned by RNA-STAR 2.5.2 to assembly mml0 (GRCm38). Aligned reads were mapped to genomic features using HTSeq 0.6.1. Quantification, library size adjustment, and differential gene expression analysis was done using DESeq2 and Wald's test (pairwise contrasts between acetate and DMSO-treatment in the inhibitor-treated or untreated cells, followed by a set overlap of differentially expressed genes). Gene list overlaps were tested for significance using the hypergeometric test.
# Next, the functional relevance of alcohol-derived acetate for ACSS2-dependent histone acetylation in regulating hippocampal gene expression was examined (FIG. 23E, right). […] However, in line with the ChIP-seq data, this response was markedly blunted in ACSS2 KD mice. […] Because alcohol and acetate have pleiotropic effects on brain circuitry and metabolism, an in vitro assay was then developed to more closely model the direct effects of exogenous acetate on gene expression. […]
structure (smiles),measurement,setting,value
"CCCCCNC(=O)Nc1ccc2nc(-c3cccs3)c(-c3cccs3)nc2c1 [ADG-204, 1-(2,3-di(thiophen-2-yl)quinoxalin-6-yl)-3-penlylurea]",incorporation of alcohol-derived heavy acetyl groups into histone acetylation,ACSS2,prevents the incorporation of alcohol-derived heavy acetyl groups into histone acetylation
"COCCNC(=O)Nc1ccc2nc(-c3cccs3)c(-c3cccs3)nc2c1 [ADG-205, 1-(2,3-di(thiophen-2-yl)quinoxalin-6-yl)-3-(2-methoxyethyl)urea]",incorporation of alcohol-derived heavy acetyl groups into histone acetylation,ACSS2,prevents the incorporation of alcohol-derived heavy acetyl groups into histone acetylation
"O=C(Nc1ccc2nc(-c3cccs3)c(-c3cccs3)nc2c1)NC12CC3CC(CC(C3)C1)C2 [ADG-207, 1-((1S,3s)-adamantan-1-yl)-3-(2,3-di(thiophen-2-yl)quinoxalin-6-yl)urea]",incorporation of alcohol-derived heavy acetyl groups into histone acetylation,ACSS2,prevents the incorporation of alcohol-derived heavy acetyl groups into histone acetylation
"CNC(=O)Nc1ccc2nc(-c3cccs3)c(-c3cccs3)nc2c1 [ADG-206, 1-(2,3-di(thiophen-2-yl)quinoxalin-6-yl)-3-methylurea]",incorporation of alcohol-derived heavy acetyl groups into histone acetylation,ACSS2,prevents the incorporation of alcohol-derived heavy acetyl groups into histone acetylation
"COCCNC(=O)Nc1ccc2nc(-c3cccs3)c(-c3cccs3)nc2c1 [ACSS2i, 1-(2,3-di(thiophen-2-yl)quinoxalin-6-yl)-3-(2-methoxyethyl)urea]",ACSS2 levels,[1],without lowering ACSS2 levels
same,histone acetylation,[1],reduced
same,neuronal marker expression,[1],reduced
same,expression of differentiation-induced genes (RNA-seq),[2]; 24-hour ACSS2i 20 μM vs DMSO,a reduction in differentiation-induced genes
same,"expression of ND genes (genes linked to neuronal differentiation, 1,315 genes)",[2]; ACSS2i-treated vs DMSO-treated CAD neurons,markedly reduced
same,genes that showed reduced expression upon ACSS2i treatment,"[2]; RNA-seq, 24-hour ACSS2i 20 μM vs DMSO",299 genes
same,"Nuclear acetyl-CoA levels, mean Δ",[3],−0.25±0.05
same,regulation of acetate-induced genes by ACSS2i,[4]; in the absence of acetate,not regulated
same,acetate-induced genes that failed to become upregulated in the presence of ACSS2i,"[4]; of 3613 acetate-induced genes, 10 mM acetate 24 hours",2107 genes
